How the values were obtained:
[1] = 101 kPa, Liquid; for viscosity: Capillary tube (Ostwald / Ubbelohde) method
[2] = xn = mol fraction of the nth substance listed; conditions: 101 kPa, Liquid; for viscosity: Capillary tube (Ostwald / Ubbelohde) method

CC(C)Cc1ccccc1 [(2-methylpropyl)benzene]
[1]
Conditions | mass density [kg/m3] | speed of sound [m/s] | viscosity [mPa·s]
303.15 K | 844.4 | 1268 | 0.905
308.15 K | 841.1 | 1252 | 0.848
313.15 K | 837.6 | 1236 | 0.784

CC(C)Cc1ccccc1 [(2-methylpropyl)benzene] + CCOC=O
[2]
Conditions | mass density, 303.15 K [kg/m3] | mass density, 308.15 K [kg/m3] | mass density, 313.15 K [kg/m3] | speed of sound, 303.15 K [m/s] | speed of sound, 308.15 K [m/s] | speed of sound, 313.15 K [m/s] | viscosity, 303.15 K [mPa·s] | viscosity, 308.15 K [mPa·s] | viscosity, 313.15 K [mPa·s]
x2 = 0 | 844.4 | 841.1 | 837.6 | 1268 | 1252 | 1236 | 0.905 | 0.848 | 0.784
x2 = 0.1772 | 849.5 | 845.8 | 842.1 | 1248 | 1228 | 1208 | 0.788 | 0.726 | 0.666
x2 = 0.3217 | 854.9 | 851 | 847 | 1224 | 1204 | 1184 | 0.699 | 0.641 | 0.591
x2 = 0.4514 | 860.8 | 856.8 | 852.6 | 1200 | 1180 | 1160 | 0.625 | 0.573 | 0.529
x2 = 0.5631 | 866.8 | 862.7 | 858.3 | 1180 | 1160 | 1140 | 0.569 | 0.522 | 0.48
x2 = 0.6604 | 873.3 | 868.8 | 864.3 | 1164 | 1144 | 1124 | 0.52 | 0.479 | 0.442
x2 = 0.7444 | 879.7 | 875 | 870.3 | 1148 | 1128 | 1108 | 0.481 | 0.445 | 0.413
x2 = 0.8191 | 886.3 | 881.5 | 876.6 | 1132 | 1112 | 1092 | 0.45 | 0.415 | 0.384
x2 = 0.8852 | 893.1 | 888 | 883 | 1120 | 1100 | 1080 | 0.418 | 0.388 | 0.362
x2 = 0.9461 | 900.5 | 895.3 | 890 | 1104 | 1084 | 1064 | 0.394 | 0.369 | 0.347

c1ccccc1 [benzene]
[1]
Conditions | mass density [kg/m3] | speed of sound [m/s] | viscosity [mPa·s]
303.15 K | 867.6 | 1276 | 0.569
308.15 K | 863.2 | 1252 | 0.534
313.15 K | 858.9 | 1228 | 0.497

c1ccccc1 [benzene] + CCOC=O
[2], x2 = 0
Conditions | mass density [kg/m3] | speed of sound [m/s] | viscosity [mPa·s]
303.15 K | 867.6 | 1276 | 0.569
308.15 K | 863.2 | 1252 | 0.534
313.15 K | 858.9 | 1228 | 0.497

CCCCc1ccccc1 [butylbenzene]
[1]
Conditions | mass density [kg/m3] | speed of sound [m/s] | viscosity [mPa·s]
303.15 K | 851.3 | 1308 | 0.901
308.15 K | 848 | 1292 | 0.844
313.15 K | 844.6 | 1276 | 0.787

CCCCc1ccccc1 [butylbenzene] + CCOC=O
[2]
Conditions | mass density, 303.15 K [kg/m3] | mass density, 308.15 K [kg/m3] | mass density, 313.15 K [kg/m3] | speed of sound, 303.15 K [m/s] | speed of sound, 308.15 K [m/s] | speed of sound, 313.15 K [m/s] | viscosity, 303.15 K [mPa·s] | viscosity, 308.15 K [mPa·s] | viscosity, 313.15 K [mPa·s]
x2 = 0 | 851.3 | 848 | 844.6 | 1308 | 1292 | 1276 | 0.901 | 0.844 | 0.787
x2 = 0.1738 | 855.4 | 851.9 | 848.4 | 1284 | 1264 | 1244 | 0.782 | 0.713 | 0.65
x2 = 0.3241 | 860.3 | 856.6 | 852.9 | 1252 | 1232 | 1212 | 0.692 | 0.627 | 0.571
x2 = 0.4533 | 865.4 | 861.5 | 857.5 | 1220 | 1200 | 1180 | 0.625 | 0.569 | 0.518
x2 = 0.563 | 870.7 | 866.6 | 862.4 | 1196 | 1176 | 1156 | 0.571 | 0.521 | 0.476
x2 = 0.6587 | 876.3 | 872 | 867.6 | 1176 | 1156 | 1136 | 0.525 | 0.48 | 0.44
x2 = 0.744 | 882.2 | 877.6 | 873.1 | 1156 | 1136 | 1116 | 0.482 | 0.443 | 0.407
x2 = 0.8189 | 888.4 | 883.6 | 878.8 | 1140 | 1120 | 1100 | 0.451 | 0.412 | 0.381
x2 = 0.8855 | 894.5 | 889.6 | 884.6 | 1124 | 1104 | 1084 | 0.419 | 0.385 | 0.355
x2 = 0.9459 | 901.2 | 896 | 890.8 | 1108 | 1088 | 1068 | 0.398 | 0.366 | 0.336

CCOC=O [ethyl methanoate]
[1]
Conditions | mass density [kg/m3] | speed of sound [m/s] | viscosity [mPa·s]
303.15 K | 907.8 | 1092 | 0.373
308.15 K | 902.6 | 1072 | 0.345
313.15 K | 897.1 | 1052 | 0.324

CCOC=O [ethyl methanoate] + CC(C)Cc1ccccc1
[2], x1 = 1
Conditions | mass density [kg/m3] | speed of sound [m/s] | viscosity [mPa·s]
303.15 K | 907.8 | 1092 | 0.373
308.15 K | 902.6 | 1072 | 0.345
313.15 K | 897.1 | 1052 | 0.324

CCOC=O [ethyl methanoate] + CC(C)c1ccccc1
[2], x1 = 1
Conditions | mass density [kg/m3] | speed of sound [m/s] | viscosity [mPa·s]
303.15 K | 907.8 | 1092 | 0.373
308.15 K | 902.6 | 1072 | 0.345
313.15 K | 897.1 | 1052 | 0.324

CCOC=O [ethyl methanoate] + CCCCc1ccccc1
[2], x1 = 1
Conditions | mass density [kg/m3] | speed of sound [m/s] | viscosity [mPa·s]
303.15 K | 907.8 | 1092 | 0.373
308.15 K | 902.6 | 1072 | 0.345
313.15 K | 897.1 | 1052 | 0.324

CCOC=O [ethyl methanoate] + c1ccccc1
[2]
Conditions | mass density, 303.15 K [kg/m3] | mass density, 308.15 K [kg/m3] | mass density, 313.15 K [kg/m3] | speed of sound, 303.15 K [m/s] | speed of sound, 308.15 K [m/s] | speed of sound, 313.15 K [m/s] | viscosity, 303.15 K [mPa·s] | viscosity, 308.15 K [mPa·s] | viscosity, 313.15 K [mPa·s]
x1 = 0.1089 | 870.4 | 865.8 | 861.3 | 1252 | 1228 | 1208 | 0.529 | 0.499 | 0.468
x1 = 0.2169 | 873.5 | 868.9 | 864.3 | 1228 | 1208 | 1188 | 0.493 | 0.46 | 0.428
x1 = 0.3189 | 876.9 | 872.2 | 867.5 | 1208 | 1188 | 1168 | 0.462 | 0.431 | 0.401
x1 = 0.4239 | 880.8 | 876 | 871.2 | 1188 | 1168 | 1148 | 0.439 | 0.408 | 0.38
x1 = 0.5253 | 884.9 | 880.1 | 875.2 | 1172 | 1152 | 1132 | 0.422 | 0.392 | 0.364
x1 = 0.6233 | 889.1 | 884.2 | 879.2 | 1156 | 1136 | 1116 | 0.41 | 0.38 | 0.354
x1 = 0.7211 | 893.6 | 888.6 | 883.4 | 1140 | 1120 | 1100 | 0.399 | 0.37 | 0.348
x1 = 0.8148 | 898.1 | 893 | 887.7 | 1124 | 1104 | 1084 | 0.389 | 0.364 | 0.338
x1 = 0.9088 | 903 | 897.8 | 892.3 | 1108 | 1088 | 1068 | 0.379 | 0.355 | 0.329
x1 = 1 | 907.8 | 902.6 | 897.1 | 1092 | 1072 | 1052 | 0.373 | 0.345 | 0.324

CC(C)c1ccccc1 [isopropylbenzene]
[1]
Conditions | mass density [kg/m3] | speed of sound [m/s] | viscosity [mPa·s]
303.15 K | 852.7 | 1280 | 0.69
308.15 K | 849 | 1264 | 0.651
313.15 K | 845.4 | 1248 | 0.611

CC(C)c1ccccc1 [isopropylbenzene] + CCOC=O
[2]
Conditions | mass density, 303.15 K [kg/m3] | mass density, 308.15 K [kg/m3] | mass density, 313.15 K [kg/m3] | speed of sound, 303.15 K [m/s] | speed of sound, 308.15 K [m/s] | speed of sound, 313.15 K [m/s] | viscosity, 303.15 K [mPa·s] | viscosity, 308.15 K [mPa·s] | viscosity, 313.15 K [mPa·s]
x2 = 0 | 852.7 | 849 | 845.4 | 1280 | 1264 | 1248 | 0.69 | 0.651 | 0.611
x2 = 0.1603 | 857 | 853.2 | 849.4 | 1252 | 1240 | 1228 | 0.63 | 0.585 | 0.544
x2 = 0.3007 | 861.7 | 857.7 | 853.7 | 1228 | 1216 | 1200 | 0.577 | 0.537 | 0.499
x2 = 0.4234 | 866.5 | 862.4 | 858.3 | 1204 | 1192 | 1176 | 0.534 | 0.497 | 0.46
x2 = 0.5352 | 871.9 | 867.7 | 863.3 | 1180 | 1168 | 1152 | 0.5 | 0.463 | 0.431
x2 = 0.633 | 877.4 | 872.9 | 868.4 | 1160 | 1148 | 1132 | 0.468 | 0.437 | 0.409
x2 = 0.7203 | 882.8 | 878.2 | 873.7 | 1144 | 1132 | 1116 | 0.444 | 0.414 | 0.386
x2 = 0.801 | 888.9 | 884.2 | 879.3 | 1128 | 1116 | 1100 | 0.424 | 0.394 | 0.367
x2 = 0.8724 | 894.8 | 890 | 884.9 | 1116 | 1100 | 1084 | 0.407 | 0.382 | 0.359
x2 = 0.9399 | 901.3 | 896.4 | 891.1 | 1104 | 1088 | 1068 | 0.39 | 0.362 | 0.34

From the NIST ThermoML archive (doi:10.1021/je900689m)
